# “Also recorded” adds a separate entry of the source. Read-outs that look alike come from different tables or passages of the source.
# Columns and labels:
# human P2X4 [1] = biological target: T1, human P2X4 (Homo sapiens, UniProt Q99571); assay: Intracellular Ca2+ assay, antagonists against Ca2+ responses evoked by EC80 ATP (1.5 µM) in 1321N1 cells expressing human P2X4; assay type: cell-based
# T1 construct: expressed in transfected cells
# T1 sequence (Q99571 1-388): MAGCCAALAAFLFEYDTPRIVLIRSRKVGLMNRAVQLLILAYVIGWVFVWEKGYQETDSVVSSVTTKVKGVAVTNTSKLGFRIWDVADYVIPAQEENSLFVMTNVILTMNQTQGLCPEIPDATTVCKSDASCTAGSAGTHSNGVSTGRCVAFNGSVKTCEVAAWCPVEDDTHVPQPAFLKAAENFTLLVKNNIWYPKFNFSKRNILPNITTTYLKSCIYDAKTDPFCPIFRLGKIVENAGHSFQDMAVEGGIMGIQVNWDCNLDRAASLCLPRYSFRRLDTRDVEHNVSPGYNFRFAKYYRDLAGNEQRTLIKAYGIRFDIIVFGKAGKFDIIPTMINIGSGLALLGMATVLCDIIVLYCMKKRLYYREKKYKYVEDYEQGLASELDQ
# mouse P2X4 [2] = biological target: T2, mouse P2X4 (Mus musculus, UniProt Q9JJX6); assay: Intracellular Ca2+ assay, antagonists against Ca2+ responses evoked by EC80 ATP (1.5 µM) in 1321N1 cells expressing mouse P2X4; assay type: cell-based
# T2 construct: expressed in transfected cells
# T2 sequence (Q9JJX6 1-388): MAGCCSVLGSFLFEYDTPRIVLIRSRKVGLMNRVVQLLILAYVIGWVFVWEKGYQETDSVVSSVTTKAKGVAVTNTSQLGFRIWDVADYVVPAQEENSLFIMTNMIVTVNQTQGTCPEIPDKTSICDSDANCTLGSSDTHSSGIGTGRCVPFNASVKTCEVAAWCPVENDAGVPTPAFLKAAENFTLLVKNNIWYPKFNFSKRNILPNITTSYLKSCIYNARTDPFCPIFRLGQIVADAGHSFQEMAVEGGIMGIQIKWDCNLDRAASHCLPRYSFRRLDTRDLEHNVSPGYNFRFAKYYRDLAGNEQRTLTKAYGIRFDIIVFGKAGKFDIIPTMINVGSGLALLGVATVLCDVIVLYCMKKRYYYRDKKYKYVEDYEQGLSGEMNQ
# human P2X4 [3] = biological target: T1, human P2X4; assay: Intracellular Ca2+ assay (Fura-2, FlexStation 3), agonist responses in 1321N1 cells stably expressing human P2X4; assay type: cell-based; settings: for Emax: 1321-N1, read-out: Efficacy Human (maximal response to ligand as a percentage of maximal response to ATP)
# mouse P2X4 [4] = biological target: T2, mouse P2X4; assay: Intracellular Ca2+ assay (Fura-2, FlexStation 3), agonist responses in 1321N1 cells stably expressing mouse P2X4; assay type: cell-based; settings: for Emax: 1321-N1, read-out: Efficacy Mouse (maximal response to ligand as a percentage of maximal response to ATP); for EC50: 1321N1 cells expressing mouse P2X4, peak Ca2+ response
# human P2X4 [5] = biological target: T1, human P2X4; settings: cited from earlier work
# mouse P2X4 [6] = biological target: T2, mouse P2X4; settings: cited from earlier work
# rat P2X4 = settings: cited from earlier work
# [7] = 100 µM antagonist, vs 1.5 µM ATP
# [8] = 1321N1 cells expressing human P2X4, peak Ca2+ response, read-out: EC50 Human
# [9] = 30 µM antagonist, vs 1.5 µM ATP
# [10] = 10 µM antagonist, vs 1.5 µM ATP
# [11] = 20 µM antagonist, vs 1.5 µM ATP
smiles,measurement,setting,value
"Nc1ncnc2c1ncn2[C@@H]1O[C@H](COP(=O)(O)OP(=O)(O)OP(=O)(O)O)[C@H]2OC3(O[C@H]21)C([N+](=O)[O-])=CC(=[N+]([O-])[O-])C=C3[N+](=O)[O-] (stereo partly drawn) [TNP-ATP, 2′,3′-O-(2,4,6-Trinitrophenyl)-ATP]",Antagonist action at human P2X4 (in words),human P2X4 [1],completely inhibited
same,% inhibition Human,human P2X4 [1]; [7],94 ± 1% (100 µM)
same,IC50,mouse P2X4 [2],93 ± 4 µM
same,% inhibition Mouse,mouse P2X4 [2]; [7],43 ± 7% (100 µM)
"CSc1nc(N)c2ncn([C@@H]3O[C@H](COP(=O)(O)OP(=O)(O)OP(=O)(O)O)[C@@H](O)[C@H]3O)c2n1 [2-MeSATP, 2-(Methylthio)adenosine 5′-triphosphate]",Emax,human P2X4 [3],57 ± 6%
same,EC50,human P2X4 [3]; [8],2 ± 0.2 µM
same,Agonist action at human P2X4 (in words),human P2X4 [3]; human P2X4,partial agonist
same,Emax,mouse P2X4 [4],65 ± 2%
same,EC50,mouse P2X4 [4],8 ± 2 µM
same,Agonist action at mouse P2X4 (in words),mouse P2X4 [4]; mouse P2X4,partial agonist
"Nc1ncnc2c1ncn2[C@@H]1O[C@H](CO[P@](=O)(O)O[P@](=O)(O)O[P@@](=O)(O)S)[C@@H](O)[C@H]1O [ATPγS, Adenosine-5′-O-(3-thio-triphosphate)]",Emax,human P2X4 [3],9 ± 3%
same,Agonist action at human P2X4 (in words),human P2X4 [3]; human P2X4,did not activate; also recorded: not activated
same,Agonist action at human P2X4 (in words),human P2X4 [3]; up to 300 µM,does not activate
same,Emax,mouse P2X4 [4],45 ± 4%
same,EC50,mouse P2X4 [4],18 ± 1 µM
same,Agonist action at mouse P2X4 (in words),mouse P2X4 [4]; mouse P2X4,partial agonist
same,Agonist action at human P2X4 (literature),human P2X4 [5]; ref 33,partial agonism
"Nc1ncnc2c1ncn2[C@@H]1O[C@H](COP(=O)(O)OP(=O)(O)OP(=O)(O)O)[C@@H](O)[C@H]1O [ATP, adenosine 5′-triphosphate]",EC50,human P2X4 [3]; [8],0.747 ± 0.18 µM
same,EC80,human P2X4 [3]; human P2X4,1.5 ± 0.3 µM
same,EC50,mouse P2X4 [4],0.565 ± 0.085 µM
"Nc1ncnc2c1ncn2C1OC(COP(=O)(O)OP(=O)(O)OP(=O)(O)O)C(OC(=O)c2ccc(C(=O)c3ccccc3)cc2)C1O (stereo not drawn) [BzATP, 2′(3′)-O-(4-Benzoylbenzoyl)adenosine 5′-triphosphate]",Emax,human P2X4 [3],35 ± 4%
same,EC50,human P2X4 [3]; [8],11 ± 2 µM
same,Agonist action at human P2X4 (in words),human P2X4 [3]; human P2X4,partial agonist
same,Emax,mouse P2X4 [4],27 ± 2%
same,EC50,mouse P2X4 [4],24 ± 16 µM
same,Agonist action at mouse P2X4 (in words),mouse P2X4 [4]; mouse P2X4,partial agonist
"Nc1ncnc2c1ncn2[C@@H]1O[C@H](COP(=O)(O)OP(=O)(O)OP(=O)(O)OP(=O)(O)OC[C@H]2O[C@@H](n3cnc4c(N)ncnc43)[C@H](O)[C@@H]2O)[C@@H](O)[C@H]1O [Ap4A, Diadenosine tetraphosphate]",Agonist action at human P2X4 (in words),human P2X4 [3]; tested up to 1 mM,did not activate
same,Agonist action at mouse P2X4 (in words),mouse P2X4 [4]; mouse P2X4,not an agonist
same,Agonist action at mouse P2X4 (in words),mouse P2X4 [4]; tested up to 1 mM,did not activate
same,Agonist action at human P2X4 (literature),"human P2X4 [5]; ref 35, ref 17",activation of human P2X4 by Ap4A at nanomolar concentrations
same,Agonist action at mouse P2X4 (literature),mouse P2X4 [6]; ref 17,activates mouse P2X4 at low micromolar concentrations
same,Agonist action at mouse P2X4 (literature),mouse P2X4 [6]; ref 35,insensitive
same,Agonist potency at rat P2X4 (literature),rat P2X4; ref 36,equipotent with ATP
"C#CCNP(=O)(O)OP(=O)(O)OP(=O)(O)OCC1OC(n2cnc3c(N)ncnc32)C(O)C1O (stereo not drawn) [γ-[(Propargyl)-imido]-ATP, Adenosine-5′-[γ-(propargyl)-imido]triphosphate]",Emax,human P2X4 [3],85 ± 5%
same,EC50,human P2X4 [3]; [8],20 ± 2 µM
same,Agonist action at human P2X4 (in words),human P2X4 [3]; human P2X4,partial agonism
same,Emax,mouse P2X4 [4],90 ± 11%
same,EC50,mouse P2X4 [4],20 ± 2 µM
same,Agonist action at mouse P2X4 (in words),mouse P2X4 [4]; mouse P2X4,full agonist
"O=C1CN=C(c2cccc(Br)c2)c2oc3ccccc3c2N1 [5-BDBD, 5-(3-Bromophenyl)-1,3-dihydro-2H-benzofuro[3,2-e]-1,4-diazepin-2-one]",% inhibition Human,human P2X4 [1]; [9],97 ± 3% (30 µM)
same,Antagonist action at human P2X4 (in words),human P2X4 [1]; vs 1.5 µM ATP,completely inhibit
same,% inhibition Mouse,mouse P2X4 [2]; [9],10 ± 8% (30 µM)
same,Antagonist action at mouse P2X4 (in words),mouse P2X4 [2]; up to 100 µM,insensitive
same,Antagonist action at mouse P2X4 (in words),mouse P2X4 [2]; vs 1.5 µM ATP,not antagonised; also recorded: not an antagonist
same,Antagonist action at rat P2X4 (literature),rat P2X4; ref 37,sensitivity
"Nc1ncnc2c1ncn2C1OC(COP(=O)(O)CP(=O)(O)OP(=O)(O)O)C(O)C1O (stereo not drawn) [α,β-meATP, α,β-Methyleneadenosine 5′-triphosphate]",EC50,human P2X4 [3],7 ± 0.7 µM
same,Emax,human P2X4 [3],15 ± 2%
same,Agonist action at human P2X4 (in words),human P2X4 [3]; human P2X4,can be activated; also recorded: weak partial agonist
same,Emax,mouse P2X4 [4],5 ± 2%
same,Agonist action at mouse P2X4 (in words),mouse P2X4 [4]; mouse P2X4,no significant effect
"Nc1ccn([C@@H]2O[C@H](COP(=O)(O)OP(=O)(O)OP(=O)(O)O)[C@@H](O)[C@H]2O)c(=O)n1 [CTP, Cytidine 5′-triphosphate]",Emax,human P2X4 [3],67 ± 6%
same,Agonist action at human P2X4 (in words),human P2X4 [3]; human P2X4,partial agonist
same,Emax,mouse P2X4 [4],89 ± 5%
same,Agonist action at mouse P2X4 (in words),mouse P2X4 [4]; mouse P2X4,full agonist
"Cc1nc(/N=N/c2ccc(S(=O)(=O)O)cc2S(=O)(=O)O)c(COP(=O)(O)O)c(C=O)c1O [PPADS, Pyridoxalphosphate-6-azophenyl-2′,4′-disulfonic acid]",% inhibition Human,human P2X4 [1]; [7],98 ± 3% (100 µM)
same,% inhibition Mouse,mouse P2X4 [2]; [7],87 ± 16%(100 µM)
same,Antagonist action at human P2X4 (literature),human P2X4 [5]; ref 16-18,inhibit the human P2X4 receptor fully
"CC(C)c1cc(Br)c(NC(=O)Nc2cccnc2)c(Br)c1 [BX-430, 1-(2,6-Dibromo-4-isopropyl-phenyl)-3-(3-pyridyl)urea]",% inhibition Human,human P2X4 [1]; [10],96 ± 3% (10 µM)
same,Antagonist action at human P2X4 (in words),human P2X4 [1]; vs 1.5 µM ATP,abolished receptor activity
same,% inhibition Mouse,mouse P2X4 [2]; [10],0 ± 3% (10 µM)
same,Antagonist action at mouse P2X4 (in words),mouse P2X4 [2]; up to 100 µM,insensitive
same,Antagonist action at mouse P2X4 (in words),mouse P2X4 [2]; vs 1.5 µM ATP,not antagonised
"Cc1ccc(C(=O)Nc2ccc(S(=O)(=O)O)c3cc(S(=O)(=O)O)cc(S(=O)(=O)O)c23)cc1NC(=O)c1cccc(NC(=O)Nc2cccc(C(=O)Nc3cc(C(=O)Nc4ccc(S(=O)(=O)O)c5cc(S(=O)(=O)O)cc(S(=O)(=O)O)c45)ccc3C)c2)c1 [suramin, 8,8′-{Carbonylbis[imino-3,1-phenylenecarbonylimino(4-methyl-3,1-phenylene)carbonylimino]}di(1,3,5-naphthalenetrisulfonic acid)]",Antagonist action at human P2X4 (in words),human P2X4 [1]; up to 100 µM,completely insensitive
same,Antagonist action at mouse P2X4 (in words),mouse P2X4 [2]; up to 100 µM,completely insensitive
"NS(=O)(=O)c1cc(NC(=O)Cc2ccccc2)ccc1Oc1cccc(Cl)c1 [BAY-1797, N-[4-(3-Chlorophenoxy)-3-sulfamoylphenyl]-2-phenylacetamide]",% inhibition Mouse,mouse P2X4 [2]; [10],99 ± 2% (10 µM)
"Cc1ccc(S(=O)(=O)N2c3ccccc3Oc3ccccc32)cc1 [PSB-12062, N-(p-methylphenylsulfonyl)phenoxazine]",% inhibition Human,human P2X4 [1]; [11],99 ± 4% (20 µM)
same,Antagonist action at human P2X4 (in words),human P2X4 [1]; vs 1.5 µM ATP,abolished activity
same,% inhibition Mouse,mouse P2X4 [2]; [11],59 ± 7% (20 µM)
same,IC50,mouse P2X4 [2]; read-out: IC50 Mouse,3 ± 2 µM

# From paper PMC11554605, “Pharmacological differences between human and mouse P2X4 receptor explored using old and new tools” (Purinergic Signalling, 2024)
